Where two headings read alike, the source gives them in different places.

Assay [1] has as its target T1, Hsp90α (Homo sapiens, UniProt P07900).
Assay [2] deals with T2, Grp94 (Canis lupus familiaris, UniProt P41148).
The target of a further assay is Hsp90 (Homo sapiens, UniProt P08238). The following applies: McLaughlin et al. 2004; read-out: reported interaction with Hsp90; cited from earlier work.
Assay [3] has as its target T3, Hsp90β (Homo sapiens, UniProt P08238).
Assay [4] concerns the target T3, Hsp90β. The following applies: Richter et al. 2008; read-out: reported binding to Hsp90β; cited from earlier work.
In assay [5] the target is T4, Trap-1 (Homo sapiens, UniProt Q12931).
T4 sequence (Q12931 60-704): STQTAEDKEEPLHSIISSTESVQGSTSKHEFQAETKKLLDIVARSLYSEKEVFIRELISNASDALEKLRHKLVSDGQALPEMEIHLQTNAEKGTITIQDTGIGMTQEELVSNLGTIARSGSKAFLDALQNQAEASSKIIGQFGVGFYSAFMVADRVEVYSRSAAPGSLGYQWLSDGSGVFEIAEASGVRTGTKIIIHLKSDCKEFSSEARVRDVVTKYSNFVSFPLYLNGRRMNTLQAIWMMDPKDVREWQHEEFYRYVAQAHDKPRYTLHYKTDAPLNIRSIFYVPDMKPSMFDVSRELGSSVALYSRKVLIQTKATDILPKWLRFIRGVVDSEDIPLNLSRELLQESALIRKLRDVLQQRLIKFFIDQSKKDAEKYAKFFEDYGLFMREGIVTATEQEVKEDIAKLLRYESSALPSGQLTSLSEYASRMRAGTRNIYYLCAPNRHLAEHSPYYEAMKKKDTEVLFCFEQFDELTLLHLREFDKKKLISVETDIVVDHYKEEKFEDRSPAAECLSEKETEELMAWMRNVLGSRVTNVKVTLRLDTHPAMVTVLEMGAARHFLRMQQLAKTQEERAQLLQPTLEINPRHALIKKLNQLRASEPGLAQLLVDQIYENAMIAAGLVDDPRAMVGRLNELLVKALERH
The following applies: read-out: Trap-1 IC50; 43a as FP probe.

The target of assay [6] is T1, Hsp90α. The following applies: Richter et al. 2008; read-out: reported binding to Hsp90α; cited from earlier work.
The target of assay [7] is T4, Trap-1. Details: purchased Enzo Life Sciences ADI-SPP-848. The conditions noted are these: cited from earlier work.
Assay [8] deals with T2, Grp94. The assay is described as follows: Hsp90 FP saturation binding assay of FP probes. The conditions noted are these: saturation binding of FP probe. Also noted: other: 43a as FP probe; Grp94; apparent Kd; assay window; other: probe 115a. As to the method:
(§1) We next determined, in a standard saturation binding experiment that measures ligand binding in the presence of varying concentration of protein, the ability of these ligands as probes for the Hsp90 paralogs (FIGS. 22b-c).
(§2) Hsp90 saturation binding assay. […] The assay window was calculated as the difference between the FP value recorded for the bound fluorescent tracer and the FP value recorded for the free fluorescent tracer (defined as mP-mPf).

In assay [9] the target is T4, Trap-1. Briefly: Hsp90 FP saturation binding assay of FP probes. The following applies: saturation binding of FP probe; read-out: apparent Kd. Also noted: purchased Enzo Life Sciences ADI-SPP-848. As to the method: as §1, §2
In assay [10] the target is T1, Hsp90α. The assay is described as follows: Hsp90 FP saturation binding assay of FP probes. The conditions noted are these: saturation binding of FP probe; read-out: apparent Kd. As to the method:
as §1, §2

Assay [11] has as its target T3, Hsp90β. Briefly: Hsp90 FP saturation binding assay of FP probes. The conditions noted are these: saturation binding of FP probe; read-out: apparent Kd. As to the method:
as §1, §2

Setting [12] is: read-out: Hsp90α IC50, 43a as FP probe.
[13] abbreviates: read-out: binding affinity (FP competition), probe 115a.
Where [14] appears, read: read-out: Grp94 IC50, 43a as FP probe.
Where [15] appears, read: read-out: Hsp90β IC50, 43a as FP probe.

T2 sequence (P41148 with tags, fused parts or gaps DELINS287-327GGGG): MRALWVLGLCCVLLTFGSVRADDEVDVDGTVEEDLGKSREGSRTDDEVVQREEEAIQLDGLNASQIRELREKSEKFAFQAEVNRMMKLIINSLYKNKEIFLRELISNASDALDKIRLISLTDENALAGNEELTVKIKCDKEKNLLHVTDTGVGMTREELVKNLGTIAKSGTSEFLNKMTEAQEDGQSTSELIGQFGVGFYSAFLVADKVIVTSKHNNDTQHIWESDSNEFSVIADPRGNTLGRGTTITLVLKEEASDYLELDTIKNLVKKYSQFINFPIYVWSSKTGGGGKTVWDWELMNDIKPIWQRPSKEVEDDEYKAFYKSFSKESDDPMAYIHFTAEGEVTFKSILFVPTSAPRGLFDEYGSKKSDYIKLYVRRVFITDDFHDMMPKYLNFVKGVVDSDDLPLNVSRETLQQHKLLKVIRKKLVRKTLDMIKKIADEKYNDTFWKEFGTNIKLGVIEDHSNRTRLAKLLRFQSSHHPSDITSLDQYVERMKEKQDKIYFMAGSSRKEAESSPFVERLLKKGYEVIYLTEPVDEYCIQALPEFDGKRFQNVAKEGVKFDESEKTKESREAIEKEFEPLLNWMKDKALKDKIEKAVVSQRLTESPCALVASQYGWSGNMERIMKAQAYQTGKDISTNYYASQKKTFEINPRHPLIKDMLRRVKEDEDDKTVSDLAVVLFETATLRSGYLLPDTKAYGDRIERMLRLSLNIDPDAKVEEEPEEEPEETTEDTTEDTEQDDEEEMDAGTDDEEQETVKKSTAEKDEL
T3 sequence (P08238 whole entry): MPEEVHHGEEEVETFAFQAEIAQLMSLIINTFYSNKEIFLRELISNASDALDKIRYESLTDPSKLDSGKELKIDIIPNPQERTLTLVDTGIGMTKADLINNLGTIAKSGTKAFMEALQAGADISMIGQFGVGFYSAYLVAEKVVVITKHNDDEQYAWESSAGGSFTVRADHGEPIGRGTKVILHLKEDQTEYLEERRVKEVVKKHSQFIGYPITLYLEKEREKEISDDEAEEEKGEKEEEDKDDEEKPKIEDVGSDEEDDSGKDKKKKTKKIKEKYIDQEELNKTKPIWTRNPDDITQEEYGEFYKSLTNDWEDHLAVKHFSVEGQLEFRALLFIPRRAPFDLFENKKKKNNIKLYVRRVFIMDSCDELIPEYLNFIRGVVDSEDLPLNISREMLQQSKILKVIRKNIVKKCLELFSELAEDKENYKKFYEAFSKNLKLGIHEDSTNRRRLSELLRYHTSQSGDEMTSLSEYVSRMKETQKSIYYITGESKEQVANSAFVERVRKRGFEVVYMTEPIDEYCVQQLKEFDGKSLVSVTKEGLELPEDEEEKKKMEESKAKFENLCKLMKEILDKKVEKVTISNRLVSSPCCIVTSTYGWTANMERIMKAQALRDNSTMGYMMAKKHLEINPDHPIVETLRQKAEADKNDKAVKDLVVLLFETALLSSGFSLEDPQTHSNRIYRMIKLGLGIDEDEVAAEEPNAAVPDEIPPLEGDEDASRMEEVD
Sequence of Hsp90 (P08238 whole entry): as above

Take `Nc1ncnc2c1ncn2[C@@H]1O[C@H](COP(=O)(O)OP(=O)(O)O)[C@@H](O)[C@H]1O` [ADP]: the IC50 on Hsp90α [1] (setting [12]) is 59.3 µM; on Hsp90α [1] (setting [13]), 59 µM; at Grp94 [2] (setting [14]) it was 11.4 µM; at Grp94 [2] (setting [13]) it was 11.4 µM; at Hsp90β [3] (setting [15]), 42.2 µM; on Hsp90β [3] (setting [13]), 42 µM. Besides, on Trap-1 [5], the IC50 amounted to 55.6 µM. The Kd was 41 µM at Hsp90, 34 µM at Hsp90β [4] and 51 µM at Hsp90α [6].

On to `Nc1ncnc2c1ncn2[C@@H]1O[C@H](COP(=O)(O)OP(=O)(O)OP(=O)(O)O)[C@@H](O)[C@H]1O` [ATP], for which the IC50 is 861 µM on Hsp90α [1] (setting [12]); 3.24 µM on Grp94 [2] (setting [14]); 3.2 µM on Grp94 [2] (setting [13]); 894 µM at Hsp90β [3] (setting [15]); 31.3 µM at Trap-1 [5]. For the same molecule, the “reported greater affinity of Trap-1 than Hsp90” value on Trap-1 [7] is listed as “approximately 10 fold”. The Kd on Hsp90 is 840 µM.

Take `C[C@@H](NCCCn1c(Sc2cc(Cl)cc(Cl)c2)nc2c(N)ncnc21)C1CC1` [Compound 40]: on Grp94 [8], the assay window entry is recorded as “less than 100 mP”. Further, the Kd worked out at 30.7 nM on Grp94 [8] (read-out: apparent Kd), 5.8 nM at Trap-1 [9], 3.9 nM at Hsp90α [10] and 2.8 nM at Hsp90β [11].
